In patent US20220144812A1, “QUINOLINE DERIVATIVES AND THEIR USE FOR THE TREATMENT OF CANCER” (Epizyme, Inc., priority 2019, published 2022):

System: 647V cells
Experiment: High throughput proliferation (HTP) assay
Format: cell-based
Conditions: Homo sapiens, 647-V, high throughput proliferation; read-out: CREBBP HTP IC50
Method in brief: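 Exponentially growing 647V cells in DMEM with 15% FBS were treated in triplicate with increasing compound concentrations at 37° C, 5% CO2. Viable cell number was read by CellTiter-Glo luminescence on day 7; IC50 in micromolar.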

SMILES	IC50 [nM]
CCn1ncc(CN(C)C(=O)c2cc(-c3ccc(NC4CN(C)C4)c(C)n3)nc3ccc(Cl)cc23)c1C [Compound 480]	19.5
CCc1ncc(CN(C)C(=O)c2cc(-c3ccc(NCCN(C)C)c(C)n3)nc3ccc(Cl)cc23)n1C [Compound 577]	31.2
CCn1ncc(CN(C)C(=O)c2cc(-c3ccc(NCCNC)c(C)n3)nc3ccc(Cl)cc23)c1C [Compound 3, 6-chloro-N-[(1-ethyl-5-methyl-1H-pyrazol-4-yl)methyl]-N-methyl-2-(6-methyl-5-{[2-(methylamino)ethyl]amino}pyridin-2-yl)quinoline-4-carboxamide]	27
CCc1noc(CN(C)C(=O)c2cc(-c3ccc(NCCNC)c(C)n3)nc3ccc(Cl)cc23)c1C [Compound 537]	50.4
